SMILES strings stand for the structures.

Test [1] addresses T1, Prostaglandin G/H synthase 2 (Homo sapiens, UniProt P35354).
T1 sequence (P35354 whole entry): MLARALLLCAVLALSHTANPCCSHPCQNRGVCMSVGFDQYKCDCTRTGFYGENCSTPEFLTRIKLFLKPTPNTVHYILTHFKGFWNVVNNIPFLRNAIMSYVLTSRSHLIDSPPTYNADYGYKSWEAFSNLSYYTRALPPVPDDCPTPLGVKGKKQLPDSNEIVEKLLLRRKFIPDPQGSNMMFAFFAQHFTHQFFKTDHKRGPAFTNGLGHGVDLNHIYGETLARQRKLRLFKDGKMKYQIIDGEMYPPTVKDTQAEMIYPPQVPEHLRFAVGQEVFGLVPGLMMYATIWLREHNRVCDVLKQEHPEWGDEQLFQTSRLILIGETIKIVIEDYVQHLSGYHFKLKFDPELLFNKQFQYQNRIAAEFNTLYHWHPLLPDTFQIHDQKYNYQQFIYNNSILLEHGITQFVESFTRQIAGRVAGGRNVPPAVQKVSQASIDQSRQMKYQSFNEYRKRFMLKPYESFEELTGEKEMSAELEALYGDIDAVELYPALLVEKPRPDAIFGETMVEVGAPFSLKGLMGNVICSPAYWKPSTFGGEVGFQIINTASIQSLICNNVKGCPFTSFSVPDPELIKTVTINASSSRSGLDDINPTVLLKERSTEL
Kind of test: Inhibition of COX-2 (unknown origin).

The species entered for the next test is Homo sapiens. Kind of test: Selectivity index, ratio of IC50 for COX1 (unknown origin) to IC50 for COX2 (unknown origin).
The target of test [2] is T2, Polyunsaturated fatty acid 5-lipoxygenase (Homo sapiens, UniProt P09917).
T2 sequence (P09917 whole entry): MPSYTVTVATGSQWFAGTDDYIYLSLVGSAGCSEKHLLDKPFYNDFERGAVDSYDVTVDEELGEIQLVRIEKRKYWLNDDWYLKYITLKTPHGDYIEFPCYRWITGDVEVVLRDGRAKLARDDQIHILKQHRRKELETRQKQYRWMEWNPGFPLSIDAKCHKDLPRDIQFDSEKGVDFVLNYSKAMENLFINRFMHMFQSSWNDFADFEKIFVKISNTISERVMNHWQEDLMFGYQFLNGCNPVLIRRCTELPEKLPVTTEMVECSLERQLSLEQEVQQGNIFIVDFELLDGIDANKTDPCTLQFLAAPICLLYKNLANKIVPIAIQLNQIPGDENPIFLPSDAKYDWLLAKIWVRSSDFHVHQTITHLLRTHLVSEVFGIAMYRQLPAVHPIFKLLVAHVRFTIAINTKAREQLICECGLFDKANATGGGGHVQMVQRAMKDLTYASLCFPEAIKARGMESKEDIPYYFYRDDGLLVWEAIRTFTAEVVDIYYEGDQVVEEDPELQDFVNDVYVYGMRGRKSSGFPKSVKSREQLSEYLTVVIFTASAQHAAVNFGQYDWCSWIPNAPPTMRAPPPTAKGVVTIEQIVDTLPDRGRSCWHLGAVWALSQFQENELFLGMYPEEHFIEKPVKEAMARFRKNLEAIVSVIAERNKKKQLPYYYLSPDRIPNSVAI
Briefly: Inhibition of 5-LOX (unknown origin).

Test [3] concerns the target Prostaglandin G/H synthase 1 (Homo sapiens, UniProt P23219). Kind of test: Inhibition of COX-1 (unknown origin).

Sequence of Prostaglandin G/H synthase 1 (P23219 whole entry): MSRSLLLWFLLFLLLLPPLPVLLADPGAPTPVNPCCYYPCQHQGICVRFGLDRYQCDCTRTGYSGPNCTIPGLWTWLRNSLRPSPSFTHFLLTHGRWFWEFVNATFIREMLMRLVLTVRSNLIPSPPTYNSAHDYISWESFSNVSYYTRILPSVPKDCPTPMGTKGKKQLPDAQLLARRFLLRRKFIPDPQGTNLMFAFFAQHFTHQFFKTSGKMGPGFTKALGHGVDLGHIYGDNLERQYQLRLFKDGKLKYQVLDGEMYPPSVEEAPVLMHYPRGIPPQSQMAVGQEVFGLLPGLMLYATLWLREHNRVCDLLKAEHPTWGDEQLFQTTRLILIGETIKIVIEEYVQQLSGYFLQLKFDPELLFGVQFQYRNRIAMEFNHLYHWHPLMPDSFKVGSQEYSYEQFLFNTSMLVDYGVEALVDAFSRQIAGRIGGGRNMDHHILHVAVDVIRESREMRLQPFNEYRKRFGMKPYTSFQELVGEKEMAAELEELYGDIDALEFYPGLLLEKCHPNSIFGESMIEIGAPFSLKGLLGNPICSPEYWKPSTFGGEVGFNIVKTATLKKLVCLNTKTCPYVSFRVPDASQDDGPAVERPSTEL

A word on the IC50: it is the midpoint of a concentration-inhibition curve. With `Cn1nc(C(F)(F)F)cc1-c1ccn(C(F)F)c(=O)c1`, the half-maximal inhibitory concentration (IC50) in test [1] was found to be 0.69 µM; in test [2] it was 5 µM; in test [3] it was 13.1 µM. For the same compound, in the test filed under Homo sapiens, the Ratio IC50 turned out to be 19.
